This note sets out measurements from patent US20100267803A1, “Regulators Of Fat Metabolism As Anti-Cancer Targets” (The Research Foundation of State University Of New York, priority 2008, published 2010).

Holding throughout (assay type): cell-based, human
One data set has as its system FADS2 mRNA. Kind of data set: qRT-PCR of FADS2 mRNA in BT474 cells. To be noted: shRNA or 20 μM GW9662 for 48 h. The procedure:
(§1) FIG. 4 NR1D1 and PBP coordinate fatty acid metabolism in breast cancer cells. (a) BT474, MDA-MB-361, MCF-7 and HMEC cells were stained with Oil-Red O lipid and hematoxylin nuclear stains. (b) Fat stores were quantified by BODIPY 493/503 lipid probe staining (Error bars are s.d from 3 individual experiments). (c) FASN, ACLY, ACACA and FADS2 mRNA levels of BT474 cells treated with luciferase (control), PBP or NR1D1 shRNAs, or with vehicle and 20 μM of GW9662 for 48 h, analyzed by qRT-PCRs. (Error bars are s.d from 3 experiments; ***P<0.001, **P=0.005) (d) BT474 cells were transfected with FASN, ACLY and ACACA shRNAs and co-transfected with GFP. Transfected cells were counted at 24 h and 72 h and the 72h-to-24 h ratio for each shRNA was calculated and expressed as % of the control shRNA (luciferase). (Error bars are s.d from 3 individual experiments; **P<0.01, ***P<0.002). (e) BODIPY images and (f) quantification of BT474 cells transfected with luciferase (control), PBP or NR1D1 shRNAs and co-transfected with DsRed (Error bars are s.d from 3 individual experiments; ***P<0.03). Arrows indicate transfected cells.
(§2) Cell viability—apoptosis assays. […] At least 30 fields were imaged per single experiment. […] Immunoblotting. […] PCR reaction was run using standard conditions.
Background: In qPCR the cycle at which signal appears reflects the starting amount.

Data set [1] deals with ERBB2 overexpressing (BT474, MDA-MB-361) breast cancer cell lines. The experiment in a line: alamarBlue proliferation of shRNA-transfected ERBB2-overexpressing cell lines. Particulars: shRNA transfection. The source says:
(§3) FIG. 1 An RNAi screen targeting genes overexpressed in breast cancer. (a) Three transfection mixes were produced for each shRNA and each was transfected into triplicate wells of BT474 cells. AlamarBlue was used to monitor cell proliferation and viability. […] (b) The genetic and functional linkage of NR1D1 and PBP. Mb refers to map position on chromosome 17. (c) ERBB2-overexpressing (OEX) and ERBB2 non-overexpressing (non-OEX) breast cancer cell lines as well as the (non-OEX) HMEC and HEK 293 cells were transfected and assayed as in (a). […] Genes clustered with ERBB2 are boxed.
To assess the specificity of effect of each shRNA on cell proliferation, those causing the greatest decrease in BT474 cell proliferation were transfected in a variety of cell lines, including ERBB2 overexpressing (BT474, MDA-MB-361) and nonoverexpressing breast cancer cell lines (MCF-7, MDA-MB-453, MDA-MB-468), normal human mammary epithelial cells (HMECs) and a non-breast tumorigenic cell line (HEK 293FT). […] PBP, NRID1 and PFN2 shRNAs clustered with ERBB2.
RNAi screen, transfections and constructs. The flag-RevErba (flag-NR1D1) overexpression construct was a generous gift of M. Lazar. The LSXN-neu* (ERBB2) overexpression construct was a generous gift of L. Petti. shRNA constructs were expressed from the pSHAG-MAGIC 2 (pSM2) vector and derived from a genome-wide shRNA library^31. ShRNAs targeting the firefly (Photinus pyralis) luciferase gene were used as controls. Transfection efficiency was monitored by co-transfection with a modified MSCV-Puro vector expressing green fluorescent protein (GFP). The alamarBlue (Biosource) assay was performed 96 h post-transfection, since BT474 cells have a population doubling time of ˜100 hours. […] For quantification of alamarBlue we used a BioTek HT Synergy plate reader. AlamarBlue values from the RNAi screens on other cell types were also calculated as above and subjected to hierarchical cluster analysis using Cluster 2.11 (M. Eisen Lab).
(Alamar Blue is a resazurin reagent that responds to reducing activity.)

A further data set relates to ACACA mRNA. The experiment in a line: qRT-PCR of ACACA mRNA in BT474 cells. To be noted: shRNA or 20 μM GW9662 for 48 h. On the procedure:
as §1, §2

In data set [2] the test system is BT474 cells. The experiment in a line: Neutral fat stores by BODIPY 493/503 staining. Particulars: first 48 h after transfection. On the procedure: as §1
Metabolic assays. […] Transfected cells were monitored by co-transfecting with the pDsRed-Monomer-N1 vector (Clontech). Cells were imaged and analyzed using the In Cell Analyzer 1000—In Cell Investigator 3.4 system (GE Biosciences), as described above. […]

Data set [3] relates to BT474 cells. Kind of data set: RNAi screen, alamarBlue cell proliferation and viability. Particulars: shRNA transfection.
Text: as §3
Amplification of the ERBB2 oncogene occurs in 10-34% of breast cancer cases and is correlated with aggressive disease and poor clinical outcome^1. […] However, its success has been tempered by response rates of only 30% when used as a single agent therapy in patients with metastatic ERBB2-positive breast cancer^2. A large number of genes co-overexpressed with ERBB2 in this tumour type have been proposed to contribute to the aggressiveness of this cancer^3-5. Applicants have performed an unbiased functional RNAi screen^8-10 to determine if any of these co-overexpressed genes are essential for ERBB2 positive breast cancer cell survival.
RNAi screen, transfections and constructs. The flag-RevErba (flag-NR1D1) overexpression construct was a generous gift of M. Lazar. The LSXN-neu* (ERBB2) overexpression construct was a generous gift of L. Petti. shRNA constructs were expressed from the pSHAG-MAGIC 2 (pSM2) vector and derived from a genome-wide shRNA library^31. ShRNAs targeting the firefly (Photinus pyralis) luciferase gene were used as controls. Transfection efficiency was monitored by co-transfection with a modified MSCV-Puro vector expressing green fluorescent protein (GFP). The alamarBlue (Biosource) assay was performed 96 h post-transfection, since BT474 cells have a population doubling time of ˜100 hours. For mature sequences of the shRNAs that produced the best results on decreasing BT474 viability, Table S1; a complete list is available in the RNAi Codex web page (http://codex.cshl.edu). The shRNAs targeting the luciferase gene were constructed as described in the RNAi Codex web page (http://codex.cshl.edu/scripts/newmain.pl) using a modified pSM2 vector containing the PheS gene (pSM2-PheS) in the cloning site, as a negative selection marker. The empty vector control (pSM2e) was constructed by XhoI and EcoRI (New England Biolabs) digestion of pSM2-PheS, followed by nucleotide filling of protruding ends by Klenow polymerase and blunt-end ligation. Transfections were performed using FuGENE 6 and HD FuGENE (Roche) according to the manufacturer's protocol. High-throughput transfections were performed using an EpMotion 5070 fluidics station (Eppendorf). For quantification of alamarBlue we used a BioTek HT Synergy plate reader. AlamarBlue values from the RNAi screens on other cell types were also calculated as above and subjected to hierarchical cluster analysis using Cluster 2.11 (M. Eisen Lab).

For another data set, the system named is FASN mRNA. The experiment in a line: qRT-PCR of FASN mRNA in BT474 cells. To be noted: shRNA or 20 μM GW9662 for 48 h. On the procedure:
as §1, §2

Turning to “NR1D1 shRNA: shRNA, mature sequence GGCATGGTGTTACTGTGTA (shRNA)”, the FADS2 transcript levels entry with FADS2 mRNA is “downregulated”. In addition, in data set [1], the “viability of ERBB2-positive cells” value is reported as “specifically decreased the viability of ERBB2-positive cells”. For the same substance, the ACACA transcript level result in the data set on ACACA mRNA was “reduced”. The “decrease in fat stores” value in the data set on BT474 cells [2] came out at 47%. The “effect on cell proliferation” value with BT474 cells [3] is on record as “most dramatic effect on cell proliferation”. Further, the FASN transcript level entry in the data set on FASN mRNA was “reduced”.

As for “PBP shRNA: shRNA, mature sequence CCGAGTTCCTCTTATCCTA (shRNA)”, in the data set on FADS2 mRNA, the FADS2 transcript levels entry is on record as “downregulated”. Besides, the “viability of ERBB2-positive cells” value in data set [1] is “specifically decreased the viability of ERBB2-positive cells”. Moreover, the ACACA transcript level entry in the data set on ACACA mRNA is given as “reduced”. Further, the “decrease in fat stores” value in the data set with BT474 cells [2] is 30%. For the same substance, in the data set with BT474 cells [3], the “effect on cell proliferation” value is on record as “most dramatic effect on cell proliferation”. Also, the FASN transcript level entry with FASN mRNA is recorded as “reduced”.
